Tests used:
[1] = Transdermal delivery of melatonin: plasma level of melatonin after applying composition to skin of a subject; settings: control 2.0 ml of […] melatonin suspension in water, plasma level at 1, 2, 4, 8 hours
human skin tissue = experiment: Penetration rate of AI compound in AI-helper composition through human skin in vitro, modified Franz cells; assay type: in vitro ADME; settings: for Skin penetration rate of Al compound: Al compound 0.5% w/v; for Skin penetration rate of Al compound / Skin penetration rate of AI compound: 25 °C; for Skin penetration rate of lipoic acid: alpha-lipoic acid 0.5% w/v, Tyrosine isopropyl ester•HA 6% w/v, 20° C.
Protocol: Penetration rate of AI compound in the AI-helper composition through human skin were measured in vitro by modified Franz cells. A Franz cell had two chambers: the top sample chamber and the bottom receiving chamber. The human skin tissue (450-500 μm thick) that separated the top and the receiving chambers was isolated from the anterior or posterior thigh areas.

[2] = 0.375 mL of 7% helper ester + 0.8% melatonin in water on skin of the back (20 cm×20 cm)
[3] = 0.60 mL of 7% helper ester + 0.5% melatonin in water on skin of the back (20 cm×20 cm)
[4] = 0.3 mL of 7% helper ester + 1% melatonin in water on skin of the back (20 cm×20 cm)
[5] = 2-(Diethylamino)ethyl 2-(4-isobutylphenyl)propionate hydrochloride 6% w/v, water
[6] = D-Phenylalanine isopropyl ester hydrochloride 6% w/v, water
[7] = Dialkylaminoalkyl 2-(4-isobutylphenyl)propionate: None
[8] = L-Phenylalanine isopropyl ester hydrochloride 6% w/v, water
[9] = no isoleucine ester (None), AI compound 0.5 % w/v in water
[10] = no leucine ester (None), AI compound 0.5 % w/v in water
[11] = no tryptophan ester (None), AI compound 0.5 % w/v in water
[12] = with D-isoleucine isopropyl ester hydrochloride 6 % w/v in water, AI compound 0.5 % w/v
[13] = with D-leucine isopropyl ester hydrochloride 6 % w/v in water, AI compound 0.5 % w/v
[14] = with D-tryptophan isopropyl ester hydrochloride 6 % w/v in water, AI compound 0.5 % w/v
[15] = with L-isoleucine isopropyl ester hydrochloride 6 % w/v in water, AI compound 0.5 % w/v
[16] = with L-leucine isopropyl ester hydrochloride 6 % w/v in water, AI compound 0.5 % w/v
[17] = with L-tryptophan isopropyl ester hydrochloride 6 % w/v in water, AI compound 0.5 % w/v

Molecule: CCN(CC)CCCOC(=O)c1ccccc1OC(C)=O [3-(Diethylamino)propyl 2-acetoxybenzoate]
- transdermal delivery of melatonin compared to control composition (A) [1, 2]: more efficient and effective transdermal delivery of melatonin

Molecule: CCN(CC)CCOC(=O)c1ccccc1OC(C)=O [2-(Diethylamino)ethyl 2-acetoxybenzoate]
- transdermal delivery of melatonin compared to control composition (A) [1, 2]: more efficient and effective transdermal delivery of melatonin

Molecule: CCCCCCOC(=O)[C@@H]1CCCN1 [Proline hexyl ester]
- transdermal delivery of melatonin compared to control composition (A) [1, 3]: more efficient and effective transdermal delivery of melatonin

Molecule: CC(C)Cc1ccc(C(C)C(=O)OCCN(C)C)cc1 (stereo not shown) [2-(Dimethylamino)ethyl 2-(4-isobutylphenyl)propionate]
- transdermal delivery of melatonin compared to control composition (A) [1, 3]: more efficient and effective transdermal delivery of melatonin

Molecule: CC(C)OC(=O)[C@@H]1CCCN1 [Proline isopropyl ester]
- transdermal delivery of melatonin compared to control composition (A) [1, 3]: more efficient and effective transdermal delivery of melatonin

Molecule: CCCCCCOC(=O)[C@@H](N)[C@@H](C)CC [Isoleucine hexyl ester]
- transdermal delivery of melatonin compared to control composition (A) [1, 3]: more efficient and effective transdermal delivery of melatonin

Molecule: CCCCCOC(=O)[C@@H](N)Cc1ccc(O)cc1 [Tyrosine pentyl ester]
- transdermal delivery of melatonin compared to control composition (A) [1, 4]: more efficient and effective transdermal delivery of melatonin

Molecule: Nc1nc2ncc(CNc3ccc(C(=O)N[C@@H](CCC(=O)O)C(=O)O)cc3)nc2c(=O)[nH]1 [Folic acid]
- Skin penetration rate of Al compound (human skin tissue; [5]): 6.235 ± 1.356 μg/cm^2/h
- Skin penetration rate of Al compound (human skin tissue; [6]): 6.771 ± 2.872 μg/cm^2/h
- Skin penetration rate of Al compound (human skin tissue; [7]): 0.012 ± 0.007 μg/cm^2/h
- Skin penetration rate of Al compound (human skin tissue; [8]): 6.757 ± 3.012 μg/cm^2/h
- Skin penetration rate of Al compound (human skin tissue; Phenylalanine ester: None): 0.012 ± 0.007 μg/cm^2/h
- Skin penetration rate of AI compound (human skin tissue; [9]): 0.012 ± 0.007 μg/cm^2/h
- Skin penetration rate of AI compound (human skin tissue; [10]): 0.007 ± 0.012 μg/cm^2/h
- Skin penetration rate of AI compound (human skin tissue; [11]): 0.009 ± 0.011 μg/cm^2/h
- Skin penetration rate of AI compound (human skin tissue; [12]): 5.598 ± 2.812 μg/cm^2/h
- Skin penetration rate of AI compound (human skin tissue; [13]): 5.523 ± 3.012 μg/cm^2/h
- Skin penetration rate of AI compound (human skin tissue; [14]): 6.725 ± 3.327 μg/cm^2/h
- Skin penetration rate of AI compound (human skin tissue; [15]): 5.793 ± 3.116 μg/cm^2/h
- Skin penetration rate of AI compound (human skin tissue; [16]): 5.786 ± 3.162 μg/cm^2/h
- Skin penetration rate of AI compound (human skin tissue; [17]): 6.915 ± 3.452 μg/cm^2/h

Molecule: COC(=O)[C@@H]1CCCN1 [Proline methyl ester]
- transdermal delivery of melatonin compared to control composition (A) [1, 3]: more efficient and effective transdermal delivery of melatonin

Molecule: O=C(O)CCCCC1CCSS1 (stereo not shown) [lipoic acid]
- Skin penetration rate of lipoic acid (human skin tissue; HA = 1/2H2SO4, water): 34.012 ± 2.685 μg/cm^2/h
- Skin penetration rate of lipoic acid (human skin tissue; HA = 1/3H3PO4, water): 33.25 ± 2.762 μg/cm^2/h
- Skin penetration rate of lipoic acid (human skin tissue; HA = 2/3H3PO4, water): 34.124 ± 2.912 μg/cm^2/h
- Skin penetration rate of lipoic acid (human skin tissue; HA = Acetic acid, water): 33.513 ± 2.319 μg/cm^2/h
- Skin penetration rate of lipoic acid (human skin tissue; HA = Benzoic acid, water): 32.913 ± 4.319 μg/cm^2/h
- Skin penetration rate of lipoic acid (human skin tissue; HA = Butyric acid, water): 33.452 ± 3.756 μg/cm^2/h
- Skin penetration rate of lipoic acid (human skin tissue; HA = Citric acid, water): 34.013 ± 2.569 μg/cm^2/h
- Skin penetration rate of lipoic acid (human skin tissue; HA = H2SO4, water): 33.567 ± 3.125 μg/cm^2/h
- Skin penetration rate of lipoic acid (human skin tissue; HA = HBr, water): 34.013 ± 3.219 μg/cm^2/h
- Skin penetration rate of lipoic acid (human skin tissue; HA = HCl, water): 33.613 ± 2.819 μg/cm^2/h
- Skin penetration rate of lipoic acid (human skin tissue; HA = HF, water): 33.613 ± 3.219 μg/cm^2/h
- Skin penetration rate of lipoic acid (human skin tissue; HA = HI, water): 33.572 ± 3.129 μg/cm^2/h
- Skin penetration rate of lipoic acid (human skin tissue; HA = Lactic acid, water): 32.987 ± 4.212 μg/cm^2/h

Molecule: CC[C@H](C)[C@H](N)C(=O)OC(C)C [Isoleucine isopropyl ester]
- transdermal delivery of melatonin compared to control composition (A) [1, 3]: more efficient and effective transdermal delivery of melatonin

Molecule: CCCCCCOC(=O)[C@@H](N)CC(C)C [Leucine hexyl ester]
- transdermal delivery of melatonin compared to control composition (A) [1, 3]: more efficient and effective transdermal delivery of melatonin

Molecule: O=C1O[C@H]([C@@H](O)CO)C(O)=C1O [Vitamin C]
- Skin penetration rate of Al compound (human skin tissue; [5]): 10.112 ± 2.322 μg/cm^2/h
- Skin penetration rate of Al compound (human skin tissue; [6]): 10.378 ± 2.155 μg/cm^2/h
- Skin penetration rate of Al compound (human skin tissue; [7]): 0.016 ± 0.012 μg/cm^2/h
- Skin penetration rate of Al compound (human skin tissue; [8]): 10.301 ± 2.022 μg/cm^2/h
- Skin penetration rate of Al compound (human skin tissue; Phenylalanine ester: None): 0.017 ± 0.015 μg/cm^2/h
- Skin penetration rate of AI compound (human skin tissue; [9]): 0.011 ± 0.008 μg/cm^2/h
- Skin penetration rate of AI compound (human skin tissue; [10]): 0.008 ± 0.010 μg/cm^2/h
- Skin penetration rate of AI compound (human skin tissue; [11]): 0.007 ± 0.013 μg/cm^2/h
- Skin penetration rate of AI compound (human skin tissue; [12]): 8.526 ± 2.271 μg/cm^2/h
- Skin penetration rate of AI compound (human skin tissue; [13]): 8.256 ± 2.078 μg/cm^2/h
- Skin penetration rate of AI compound (human skin tissue; [14]): 11.136 ± 2.385 μg/cm^2/h
- Skin penetration rate of AI compound (human skin tissue; [15]): 8.369 ± 2.102 μg/cm^2/h
- Skin penetration rate of AI compound (human skin tissue; [16]): 8.378 ± 2.152 μg/cm^2/h
- Skin penetration rate of AI compound (human skin tissue; [17]): 11.345 ± 2.612 μg/cm^2/h

Molecule: Vitamin A
- Skin penetration rate of Al compound (human skin tissue; [5]): 18.347 ± 3.132 μg/cm^2/h
- Skin penetration rate of Al compound (human skin tissue; [6]): 20.015 ± 3.025 μg/cm^2/h
- Skin penetration rate of Al compound (human skin tissue; [7]): 0.021 ± 0.011 μg/cm^2/h
- Skin penetration rate of Al compound (human skin tissue; [8]): 20.177 ± 3.241 μg/cm^2/h
- Skin penetration rate of Al compound (human skin tissue; Phenylalanine ester: None): 0.026 ± 0.015 μg/cm^2/h
- Skin penetration rate of AI compound (human skin tissue; [9]): 0.015 ± 0.008 μg/cm^2/h
- Skin penetration rate of AI compound (human skin tissue; [10]): 0.015 ± 0.011 μg/cm^2/h
- Skin penetration rate of AI compound (human skin tissue; [11]): 0.018 ± 0.012 μg/cm^2/h
- Skin penetration rate of AI compound (human skin tissue; [12]): 16.515 ± 3.212 μg/cm^2/h
- Skin penetration rate of AI compound (human skin tissue; [13]): 16.315 ± 3.172 μg/cm^2/h
- Skin penetration rate of AI compound (human skin tissue; [14]): 21.715 ± 3.685 μg/cm^2/h
- Skin penetration rate of AI compound (human skin tissue; [15]): 16.656 ± 3.021 μg/cm^2/h
- Skin penetration rate of AI compound (human skin tissue; [16]): 16.357 ± 3.121 μg/cm^2/h
- Skin penetration rate of AI compound (human skin tissue; [17]): 20.977 ± 3.741 μg/cm^2/h

Molecule: CC(C)OC(=O)[C@@H](N)Cc1ccc(O)cc1 [Tyrosine isopropyl ester]
- transdermal delivery of melatonin compared to control composition (A) [1, 4]: more efficient and effective transdermal delivery of melatonin

Molecule: CCCCCCCCOC(=O)[C@@H](N)Cc1ccccc1 [Phenylalanine octyl ester]
- transdermal delivery of melatonin compared to control composition (A) [1, 3]: more efficient and effective transdermal delivery of melatonin

Molecule: CCCOC(=O)[C@@H](N)Cc1ccc(O)cc1 [Tyrosine propyl ester]
- transdermal delivery of melatonin compared to control composition (A) [1, 4]: more efficient and effective transdermal delivery of melatonin

Molecule: CCN(CC)CCCCOC(=O)C(C)c1ccc(CC(C)C)cc1 (stereo not shown) [4-(Diethylamino)butyl 2-(4-isobutylphenyl)propionate]
- transdermal delivery of melatonin compared to control composition (A) [1, 3]: more efficient and effective transdermal delivery of melatonin

Molecule: CCN(CC)CCCCCOC(=O)C(C)c1ccc(CC(C)C)cc1 (stereo not shown) [5-(Diethylamino)pentyl 2-(4-isobutylphenyl)propionate]
- transdermal delivery of melatonin compared to control composition (A) [1, 3]: more efficient and effective transdermal delivery of melatonin

Molecule: CC(=O)Oc1ccccc1C(=O)OCCCCCCN(C)C [6-(Dimethylamino)hexyl 2-acetoxybenzoate]
- transdermal delivery of melatonin compared to control composition (A) [1, 2]: more efficient and effective transdermal delivery of melatonin

Molecule: NCCS(=O)(=O)O [Taurine]
- Skin penetration rate of Al compound (human skin tissue; [5]): 8.711 ± 1.871 μg/cm^2/h
- Skin penetration rate of Al compound (human skin tissue; [6]): 8.339 ± 2.178 μg/cm^2/h
- Skin penetration rate of Al compound (human skin tissue; [7]): 0.012 ± 0.006 μg/cm^2/h
- Skin penetration rate of Al compound (human skin tissue; [8]): 8.372 ± 2.237 μg/cm^2/h
- Skin penetration rate of Al compound (human skin tissue; Phenylalanine ester: None): 0.011 ± 0.006 μg/cm^2/h
- Skin penetration rate of AI compound (human skin tissue; [9]): 0.009 ± 0.007 μg/cm^2/h
- Skin penetration rate of AI compound (human skin tissue; [10]): 0.008 ± 0.009 μg/cm^2/h
- Skin penetration rate of AI compound (human skin tissue; [11]): 0.005 ± 0.008 μg/cm^2/h
- Skin penetration rate of AI compound (human skin tissue; [12]): 7.521 ± 2.312 μg/cm^2/h
- Skin penetration rate of AI compound (human skin tissue; [13]): 7.231 ± 2.386 μg/cm^2/h
- Skin penetration rate of AI compound (human skin tissue; [14]): 9.131 ± 2.321 μg/cm^2/h
- Skin penetration rate of AI compound (human skin tissue; [15]): 7.247 ± 2.076 μg/cm^2/h
- Skin penetration rate of AI compound (human skin tissue; [16]): 7.175 ± 2.257 μg/cm^2/h
- Skin penetration rate of AI compound (human skin tissue; [17]): 9.172 ± 2.117 μg/cm^2/h
